Key:
[1] = biological target: Atypical chemokine receptor 3 (Homo sapiens, UniProt P25106); experiment: Displacement of [125I]SDF-1alpha from ACKR3 (unknown origin) expressed in CHO cells after 1 hr by scintillation counting method; format: cell-based
[2] = biological target: C-X-C chemokine receptor type 4 (Homo sapiens, UniProt P61073); experiment: Displacement of [125I]SDF-1alpha from CXCR4 (unknown origin) expressed in HEK293 cells after 1 hr by scintillation counting method; format: cell-based
Sequence of C-X-C chemokine receptor type 4 (P61073 whole entry): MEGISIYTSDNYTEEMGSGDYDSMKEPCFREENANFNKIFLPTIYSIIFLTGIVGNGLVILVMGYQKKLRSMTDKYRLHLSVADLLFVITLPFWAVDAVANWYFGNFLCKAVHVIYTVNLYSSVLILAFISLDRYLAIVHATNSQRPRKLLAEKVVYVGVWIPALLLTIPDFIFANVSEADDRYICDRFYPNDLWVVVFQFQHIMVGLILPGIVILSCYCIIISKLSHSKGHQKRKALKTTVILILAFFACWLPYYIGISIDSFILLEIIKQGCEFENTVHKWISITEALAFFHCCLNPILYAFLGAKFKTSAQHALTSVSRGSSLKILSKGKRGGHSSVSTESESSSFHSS

Sequence of Atypical chemokine receptor 3 (P25106 whole entry): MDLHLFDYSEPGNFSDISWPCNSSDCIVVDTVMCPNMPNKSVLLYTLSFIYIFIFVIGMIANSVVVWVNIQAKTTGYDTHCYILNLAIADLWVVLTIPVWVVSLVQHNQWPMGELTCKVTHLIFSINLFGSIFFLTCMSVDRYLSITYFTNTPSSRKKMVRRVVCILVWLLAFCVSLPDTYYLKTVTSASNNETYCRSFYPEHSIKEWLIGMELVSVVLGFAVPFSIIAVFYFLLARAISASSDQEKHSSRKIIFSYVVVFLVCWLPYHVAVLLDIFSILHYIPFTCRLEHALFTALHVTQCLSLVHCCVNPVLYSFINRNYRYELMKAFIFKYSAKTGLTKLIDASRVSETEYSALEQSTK

CC(C)C[C@H]1C(=O)N[C@H](Cc2ccc(O)cc2)C(=O)N[C@@H](CCCNC(=N)N)C(=O)N(C)[C@@H](CCCNC(N)=O)C(=O)N[C@@H](Cc2ccc3ccccc3c2)C(=O)N1C
IC50 [1]: 1.9 µM
IC50 [2]: > 30 µM

CN1C(=O)[C@H](CCCNC(=N)N)NC(=O)[C@@H](Cc2ccc(C(=O)c3ccccc3)cc2)NC(=O)[C@@H]2CCCN2C(=O)[C@H](Cc2ccc3ccccc3c2)NC(=O)[C@@H]1CCCNC(N)=O
IC50 [1]: 0.72 µM
IC50 [2]: > 30 µM

CN1C(=O)[C@H](Cc2ccc(O)cc2)NC(=O)[C@@H](Cc2ccc(O)cc2)NC(=O)[C@@H]2CCCN2C(=O)[C@H](Cc2ccc3ccccc3c2)NC(=O)[C@@H]1CCCNC(=N)N
IC50 [1]: 2 to 24 µM
IC50 [2]: > 30 µM

CN1C(=O)[C@H](CCCNC(=N)N)NC(=O)[C@@H](Cc2ccc(O)cc2)NC(=O)[C@@H]2CCCN2C(=O)[C@H](Cc2ccc3ccccc3c2)NC(=O)[C@@H]1CCCNC(N)=O
IC50 [1]: 13 µM
IC50 [2]: > 30 µM

CN1C(=O)[C@H](CCCNC(=N)N)NC(=O)[C@@H](Cc2ccc(O)cc2)NC(=O)[C@@H]2Cc3ccccc3N2C(=O)[C@H](Cc2ccc3ccccc3c2)NC(=O)[C@@H]1CCCNC(N)=O
IC50 [1]: 0.19 µM
IC50 [2]: > 30 µM

CN1C(=O)[C@H](CCCNC(=N)N)NC(=O)[C@@H](Cc2ccc(O)cc2)NC(=O)[C@@H]2Cc3ccccc3CN2C(=O)[C@H](Cc2ccc3ccccc3c2)NC(=O)[C@@H]1CCCNC(N)=O
IC50 [1]: 4.2 µM
IC50 [2]: > 30 µM

CN1C(=O)[C@H](CCCNC(=N)N)NC(=O)[C@@H](Cc2ccc(O)cc2)NC(=O)[C@@H]2CCCN2C(=O)[C@H](Cc2ccc3ccccc3c2)NC(=O)[C@@H]1CC(N)=O
IC50 [1]: 4.1 µM
IC50 [2]: > 30 µM

CN1C(=O)[C@H](CCCNC(=N)N)NC(=O)[C@@H](Cc2ccc(O)cc2)NC(=O)[C@H](Cc2ccc(-c3ccccc3)cc2)N(C)C(=O)[C@H](Cc2ccc3ccccc3c2)NC(=O)[C@@H]1CCCNC(N)=O
IC50 [1]: 4 µM
IC50 [2]: > 30 µM

CN1C(=O)[C@H](CO)NC(=O)[C@@H](Cc2ccc(O)cc2)NC(=O)[C@@H]2CCCN2C(=O)[C@H](Cc2ccc3ccccc3c2)NC(=O)[C@@H]1CCCNC(=N)N
IC50 [1]: 2 to 24 µM
IC50 [2]: > 30 µM

CN1C(=O)[C@H](CCCNC(=N)N)NC(=O)[C@@H](Cc2cccc(F)c2)NC(=O)[C@@H]2CCCN2C(=O)[C@H](Cc2ccc3ccccc3c2)NC(=O)[C@@H]1CCCNC(N)=O
IC50 [1]: 1.3 µM
IC50 [2]: > 30 µM

CN1C(=O)[C@H](Cc2ccc3ccccc3c2)NC(=O)[C@H](CCCNC(N)=O)N(C)C(=O)[C@H](CCCNC(=N)N)NC(=O)[C@@H](Cc2ccc(O)cc2)NC(=O)[C@H]1CS
IC50 [1]: 4.6 µM
IC50 [2]: 21 µM

CN1C(=O)[C@@H]2CCCN2C(=O)[C@@H](Cc2ccc(O)cc2)NC(=O)[C@@H]2CCCN2C(=O)[C@H](Cc2ccc3ccccc3c2)NC(=O)[C@@H]1CCCNC(=N)N
IC50 [1]: 2 to 24 µM
IC50 [2]: > 30 µM

CC(C)[C@@H]1NC(=O)[C@@H](Cc2ccc(O)cc2)NC(=O)[C@@H]2CCCN2C(=O)[C@H](Cc2ccc3ccccc3c2)NC(=O)[C@H](CCCNC(=N)N)N(C)C1=O
IC50 [1]: 2 to 24 µM
IC50 [2]: > 30 µM

CN1C(=O)[C@H](CCCNC(=N)N)NC(=O)[C@@H](Cc2ccc(O)cc2)NC(=O)[C@H](Cc2csc3ccccc23)N(C)C(=O)[C@H](Cc2ccc3ccccc3c2)NC(=O)[C@@H]1CCCNC(N)=O
IC50 [1]: 1 µM
IC50 [2]: > 30 µM

CN1C(=O)[C@H](CCC(N)=O)NC(=O)[C@@H](Cc2ccc(O)cc2)NC(=O)[C@@H]2CCCN2C(=O)[C@H](Cc2ccc3ccccc3c2)NC(=O)[C@@H]1CCCNC(=N)N
IC50 [1]: 9.5 µM
IC50 [2]: > 30 µM

CN1C(=O)[C@H](CCCNC(N)=O)NC(=O)[C@@H](Cc2ccc(O)cc2)NC(=O)[C@@H]2CCCN2C(=O)[C@H](Cc2ccc3ccccc3c2)NC(=O)[C@@H]1CCCNC(=N)N
IC50 [1]: 3.6 µM
IC50 [2]: > 30 µM

CSCC[C@@H]1NC(=O)[C@@H](Cc2ccc(O)cc2)NC(=O)[C@@H]2CCCN2C(=O)[C@H](Cc2ccc3ccccc3c2)NC(=O)[C@H](CCCNC(=N)N)N(C)C1=O
IC50 [1]: 2 to 24 µM
IC50 [2]: > 30 µM

CN1C(=O)[C@H](CCCNC(=N)N)NC(=O)[C@@H](Cc2ccccc2)NC(=O)[C@@H]2CCCN2C(=O)[C@H](Cc2ccc3ccccc3c2)NC(=O)[C@@H]1CCCNC(N)=O
IC50 [1]: 1.1 µM
IC50 [2]: > 30 µM

CN1C(=O)[C@H](CCCNC(=N)N)NC(=O)[C@@H](Cc2ccc(O)cc2)NC(=O)[C@@H]2CCCN2C(=O)[C@H](Cc2ccc3ccccc3c2)NC(=O)[C@@H]1CCC(N)=O
IC50 [1]: 5.8 µM
IC50 [2]: > 30 µM

CN1C(=O)[C@H](CCCN)NC(=O)[C@@H](Cc2ccc(O)cc2)NC(=O)[C@@H]2CCCN2C(=O)[C@H](Cc2ccc3ccccc3c2)NC(=O)[C@@H]1CCCNC(=N)N
IC50 [1]: 2.6 µM
IC50 [2]: > 30 µM

CN1C(=O)[C@H](CCCNC(=N)N)NC(=O)[C@@H](Cc2ccc(O)cc2)NC(=O)[C@H](Cc2ccccc2)N(C)C(=O)[C@H](Cc2ccc3ccccc3c2)NC(=O)[C@@H]1CCCNC(N)=O
IC50 [1]: 0.6 µM
IC50 [2]: > 30 µM

CN1C(=O)[C@H](CCCNC(=N)N)NC(=O)[C@@H](Cc2ccc(O)cc2)NC(=O)[C@@H]2CCCN2C(=O)[C@H](Cc2ccc3ccccc3c2)NC(=O)[C@@H]1CCCCNC(=N)N
IC50 [1]: 0.56 µM
IC50 [2]: > 30 µM

CC[C@H](C)[C@@H]1NC(=O)[C@@H](Cc2ccc(O)cc2)NC(=O)[C@@H]2CCCN2C(=O)[C@H](Cc2ccc3ccccc3c2)NC(=O)[C@H](CCCNC(=N)N)N(C)C1=O
IC50 [1]: 2 to 24 µM
IC50 [2]: > 30 µM

CN1C(=O)[C@H](CCNC(=N)N)NC(=O)[C@@H](Cc2ccc(O)cc2)NC(=O)[C@@H]2CCCN2C(=O)[C@H](Cc2ccc3ccccc3c2)NC(=O)[C@@H]1CCCNC(=N)N
IC50 [1]: 2.6 µM
IC50 [2]: > 30 µM

CN1C(=O)[C@H](CCCNC(=N)N)NC(=O)[C@@H](Cc2ccc(Cl)cc2)NC(=O)[C@@H]2CCCN2C(=O)[C@H](Cc2ccc3ccccc3c2)NC(=O)[C@@H]1CCCNC(N)=O
IC50 [1]: 0.79 µM
IC50 [2]: > 30 µM

CN1C(=O)[C@H](CCCNC(=N)N)NC(=O)[C@@H](Cc2ccc(O)cc2)NC(=O)[C@@H]2CCCN2C(=O)[C@H](Cc2ccc3ccccc3c2)NC(=O)[C@@H]1CCCN
IC50 [1]: 1.3 µM
IC50 [2]: > 30 µM

CN1C(=O)[C@H](CCCNC(=N)N)NC(=O)[C@@H](Cc2ccc(O)cc2)NC(=O)[C@@H]2Cc3[nH]c4ccccc4c3CN2C(=O)[C@H](Cc2ccc3ccccc3c2)NC(=O)[C@@H]1CCCNC(N)=O
IC50 [1]: 2.1 µM
IC50 [2]: > 30 µM

CN1C(=O)[C@H](CCCNC(=N)N)NC(=O)[C@@H](Cc2ccc3ccccc3c2)NC(=O)[C@@H]2CCCN2C(=O)[C@H](Cc2ccc3ccccc3c2)NC(=O)[C@@H]1CCCNC(N)=O
IC50 [1]: 0.69 µM
IC50 [2]: > 30 µM

CN1C(=O)[C@H](Cc2ccccc2)NC(=O)[C@@H](Cc2ccc(O)cc2)NC(=O)[C@@H]2CCCN2C(=O)[C@H](Cc2ccc3ccccc3c2)NC(=O)[C@@H]1CCCNC(=N)N
IC50 [1]: 2 to 24 µM
IC50 [2]: > 30 µM

CN1C(=O)[C@H](CCCNC(=N)N)NC(=O)[C@@H](Cc2ccc(O)cc2)NC(=O)[C@@H]2CCCN2C(=O)[C@H](Cc2ccc3ccccc3c2)NC(=O)[C@@H]1CCNC(=N)N
IC50 [1]: 1.5 µM
IC50 [2]: > 30 µM

CSCC[C@H]1C(=O)N[C@H](Cc2ccc(O)cc2)C(=O)N[C@@H](CCCNC(=N)N)C(=O)N(C)[C@@H](CCCNC(N)=O)C(=O)N[C@@H](Cc2ccc3ccccc3c2)C(=O)N1C
IC50 [1]: 1.8 µM
IC50 [2]: > 30 µM

CN1C(=O)[C@H](CCCNC(=N)N)NC(=O)[C@@H](Cc2ccc(O)cc2)NC(=O)[C@H](Cc2c[nH]c3ccccc23)N(C)C(=O)[C@H](Cc2ccc3ccccc3c2)NC(=O)[C@@H]1CCCNC(N)=O
IC50 [1]: 0.52 µM
IC50 [2]: 10 µM

CN1C(=O)[C@H](CCCCN)NC(=O)[C@@H](Cc2ccc(O)cc2)NC(=O)[C@@H]2CCCN2C(=O)[C@H](Cc2ccc3ccccc3c2)NC(=O)[C@@H]1CCCNC(=N)N
IC50 [1]: 2 to 24 µM
IC50 [2]: > 30 µM

CC[C@H](C)[C@H]1C(=O)N[C@H](Cc2ccc(O)cc2)C(=O)N[C@@H](CCCNC(=N)N)C(=O)N(C)[C@@H](CCCNC(N)=O)C(=O)N[C@@H](Cc2ccc3ccccc3c2)C(=O)N1C
IC50 [1]: 2.2 µM
IC50 [2]: > 30 µM

CN1C(=O)[C@H](Cc2c[nH]c3ccccc23)NC(=O)[C@@H](Cc2ccc(O)cc2)NC(=O)[C@@H]2CCCN2C(=O)[C@H](Cc2ccc3ccccc3c2)NC(=O)[C@@H]1CCCNC(=N)N
IC50 [1]: 2 to 24 µM
IC50 [2]: > 30 µM

CN1C(=O)[C@H](CCCNC(=N)N)NC(=O)[C@@H](Cc2csc3ccccc23)NC(=O)[C@@H]2CCCN2C(=O)[C@H](Cc2ccc3ccccc3c2)NC(=O)[C@@H]1CCCNC(N)=O
IC50 [1]: 0.54 µM
IC50 [2]: > 30 µM

CN1C(=O)[C@H](CCCNC(=N)N)NC(=O)[C@@H](Cc2ccc(Br)cc2)NC(=O)[C@@H]2CCCN2C(=O)[C@H](Cc2ccc3ccccc3c2)NC(=O)[C@@H]1CCCNC(N)=O
IC50 [1]: 0.72 µM
IC50 [2]: > 30 µM

CN1C(=O)[C@H](CCCNC(=N)N)NC(=O)[C@@H](Cc2ccc(F)cc2)NC(=O)[C@@H]2CCCN2C(=O)[C@H](Cc2ccc3ccccc3c2)NC(=O)[C@@H]1CCCNC(N)=O
IC50 [1]: 1.2 µM
IC50 [2]: > 30 µM

CN1C(=O)[C@H](CCCNC(=N)N)NC(=O)[C@@H](CCc2ccccc2)NC(=O)[C@@H]2CCCN2C(=O)[C@H](Cc2ccc3ccccc3c2)NC(=O)[C@@H]1CCCNC(N)=O
IC50 [1]: 5 µM
IC50 [2]: > 30 µM

CC(C)C[C@@H]1NC(=O)[C@@H](Cc2ccc(O)cc2)NC(=O)[C@@H]2CCCN2C(=O)[C@H](Cc2ccc3ccccc3c2)NC(=O)[C@H](CCCNC(=N)N)N(C)C1=O
IC50 [1]: 2 to 24 µM
IC50 [2]: > 30 µM

CN1C(=O)[C@H](Cc2cnc[nH]2)NC(=O)[C@@H](Cc2ccc(O)cc2)NC(=O)[C@@H]2CCCN2C(=O)[C@H](Cc2ccc3ccccc3c2)NC(=O)[C@@H]1CCCNC(=N)N
IC50 [1]: 2 to 24 µM
IC50 [2]: > 30 µM

CN1C(=O)[C@@H](CS)NC(=O)[C@@H](Cc2ccc(O)cc2)NC(=O)[C@@H]2CCCN2C(=O)[C@H](Cc2ccc3ccccc3c2)NC(=O)[C@@H]1CCCNC(=N)N
IC50 [1]: 0.25 µM
IC50 [2]: > 30 µM

CN1C(=O)[C@H](CCCCNC(=N)N)NC(=O)[C@@H](Cc2ccccc2F)NC(=O)[C@H](Cc2cccc3ccccc23)N(C)C(=O)[C@H](Cc2ccc3ccccc3c2)NC(=O)[C@@H]1CCCCNC(=N)N
IC50 [1]: 0.45 µM

— ChEMBL document CHEMBL4043305, “Structure-Activity Relationship Study of Cyclic Pentapeptide Ligands for Atypical Chemokine Receptor 3 (ACKR3)” (J Med Chem, 2018)
